Data on eleven compounds can be found in ChEMBL document CHEMBL5365504, “Psychoplastogens: A Novel Therapeutic Approach for Neurological Diseases and Disorders” (ACS Med Chem Lett, 2023).

pEC50: −log10 of the molar value.

What all share (format): functional, cell-based
Holding throughout (conditions): 72 h

Assay [1] relates to Cortical neurone. Kind of assay: Induction of neurite outgrowth in Wistar rat Cortical neuron cells assessed as increase in number of branch points incubated for 3 days by DAPI staining based high-content screening method.
Assay [2] concerns Cortical neurone. Nature of the assay: Induction of neurite outgrowth in Wistar rat Cortical neuron cells assessed as increase in neurite number incubated for 3 days by DAPI staining based high-content screening method.
Assay [3] relates to Cortical neurone. Kind of assay: Induction of neurite outgrowth in Wistar rat Cortical neuron cells assessed as increase in neurite length incubated for 3 days by DAPI staining based high-content screening method.

In general, pEC50 refers to the negative decadic logarithm of the EC50, by convention in mol/L.

On to `C[C@H](Cn1ccc2nc(OCc3ccccc3)ccc21)N(C)C`, for which the pEC50 in the assay with Cortical neurone [1], with Cortical neurone [2] and in the assay with Cortical neurone [3] was over 8.00 throughout.

`C[C@H](Cn1ccc2cc(OCc3ccccc3)ccc21)N1CCCC1`: the pEC50 in the assay with Cortical neurone [1] is 8.00; in the assay with Cortical neurone [2], over 8.00; in the assay on Cortical neurone [3] it was over 8.00.

As for `C[C@@H](N)Cn1ccc2cc(OCc3cccc(F)c3)ccc21`, the pEC50 was over 8.00 with Cortical neurone [1], 8.00 with Cortical neurone [2] and over 8.00 in the assay on Cortical neurone [3].

In the case of `C[C@@H](N)Cn1ccc2cc(OCc3ccc(F)cc3)ccc21`, the pEC50 with Cortical neurone [1], with Cortical neurone [2] and in the assay with Cortical neurone [3] was 8.00 throughout.

As to `C[C@H](Cn1ccc2cc(OCc3ccccc3)ccc21)N(C)C`, the results for the pEC50 with Cortical neurone [1], with Cortical neurone [2] and in the assay on Cortical neurone [3] were 8.00, 8.00 and over 8.00, respectively.

With `C[C@H](Cn1ccc2cc(OCc3cccc(F)c3)ccc21)N(C)C`, the pEC50 with Cortical neurone [1], with Cortical neurone [2] and with Cortical neurone [3] was over 8.00 in each case.

For `C[C@H](Cn1ccc2cc(OCc3ccccc3F)ccc21)N(C)C`, the pEC50 in the assay on Cortical neurone [1], with Cortical neurone [2] and in the assay on Cortical neurone [3] was over 8.00 throughout.

As to `CCN(CC)[C@H](C)Cn1ccc2cc(OCc3ccccc3)ccc21`, the pEC50 in the assay with Cortical neurone [1], in the assay on Cortical neurone [2] and in the assay with Cortical neurone [3] was over 8.00 in each case.

Regarding `C[C@H](Cn1ccc2cc(OCc3ccc(F)cc3)ccc21)N(C)C`, the pEC50 with Cortical neurone [1], in the assay with Cortical neurone [2] and in the assay with Cortical neurone [3] was over 8.00 in each case.

With `C[C@@H](N)Cn1ccc2cc(OCc3ccccc3F)ccc21`, the pEC50 with Cortical neurone [1] was over 8.00; in the assay with Cortical neurone [2], over 8.00; in the assay on Cortical neurone [3] it was 8.00.

For `CN[C@H](C)Cn1ccc2cc(OCc3ccccc3)ccc21`, the pEC50 in the assay on Cortical neurone [1], with Cortical neurone [2] and in the assay on Cortical neurone [3] was over 8.00 in each case.
